In PubChem BioAssay (NCI):
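1) Cells in 96-well plates. 2) Compound, 48 h, 5 concentrations. 3) Linear interpolation between surrounding doses. 4) Unreached endpoint = highest concentration. Here, GI50 denotes the concentration required for 50% inhibition of growth. TGI is the concentration that stops growth completely.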

What was measured:
Assay in all cases: NCI tumour cell line growth inhibition, 48 h
MDA-MB-435 = test system: MDA-MB-435
TK-10 renal = test system: TK-10 renal
SW-620 colon = test system: SW-620 colon
HL-60(TB) leukemia = test system: HL-60(TB) leukemia
MALME-3M melanoma = test system: MALME-3M melanoma
ACHN renal = test system: ACHN renal
A498 renal = test system: A498 renal
HCT-116 colon = test system: HCT-116 colon
SNB-19 CNS = test system: SNB-19 CNS
SF-295 CNS = test system: SF-295 CNS

Structure (SMILES): Brc1ccc(Br)nn1
- GI50 (MDA-MB-435): 1.75 µM
- TGI (MDA-MB-435): 3.55 µM
- GI50 (TK-10 renal): 2.56 µM
- TGI (TK-10 renal): 6.37 µM
- GI50 (SW-620 colon): 1.66 µM
- TGI (SW-620 colon): 6.54 µM
- GI50 (HL-60(TB) leukemia): 1.22 µM
- TGI (HL-60(TB) leukemia): 4.85 µM
- GI50 (MALME-3M melanoma): 1.75 µM
- TGI (MALME-3M melanoma): 3.7 µM
- GI50 (ACHN renal): 1.8 µM
- TGI (ACHN renal): 3.26 µM
- GI50 (A498 renal): 3.42 µM
- TGI (A498 renal): 17.5 µM
- GI50 (HCT-116 colon): 1.48 µM
- TGI (HCT-116 colon): 2.84 µM
- GI50 (SNB-19 CNS): 3.77 µM
- TGI (SNB-19 CNS): 15.5 µM
- GI50 (SF-295 CNS): 5.38 µM
- TGI (SF-295 CNS): 18.6 µM

Structure (SMILES): COc1ccc(NC(=O)O[C@H]2[C@H](O[C@H]3[C@@H](O)COC(O[C@H]4C[C@H]5[C@@H]6CC=C7C[C@@H](O)CC[C@]7(C)[C@H]6CC[C@]5(C)[C@H]4[C@H](C)C(=O)CCC(C)C)[C@@H]3OC(C)=O)OC[C@@H](O)[C@@H]2O)cc1 (some centres undefined)
- GI50 (MDA-MB-435): < 0.01 µM
- TGI (MDA-MB-435): 0.0628 µM
- GI50 (TK-10 renal): 0.0966 µM
- TGI (TK-10 renal): 23.8 µM
- GI50 (SW-620 colon): < 0.01 µM
- TGI (SW-620 colon): 0.0664 µM
- GI50 (HL-60(TB) leukemia): 0.0139 µM
- TGI (HL-60(TB) leukemia): 28.2 µM
- GI50 (MALME-3M melanoma): 0.0115 µM
- TGI (MALME-3M melanoma): 3.25 µM
- GI50 (ACHN renal): 0.118 µM
- TGI (ACHN renal): > 100 µM
- GI50 (A498 renal): < 0.01 µM
- TGI (A498 renal): < 0.01 µM
- GI50 (HCT-116 colon): < 0.01 µM
- TGI (HCT-116 colon): 14.4 µM
- GI50 (SNB-19 CNS): 0.0189 µM
- TGI (SNB-19 CNS): 3.36 µM
- GI50 (SF-295 CNS): < 0.01 µM
- TGI (SF-295 CNS): < 0.01 µM

Structure (SMILES): Cc1c(N2C(=O)/C(=C\c3ccc(N(C)C)cc3)N=C2c2ccccc2)c(=O)n(-c2ccccc2)n1C
- GI50 (MDA-MB-435): > 100 µM
- TGI (MDA-MB-435): > 100 µM
- GI50 (TK-10 renal): > 100 µM
- TGI (TK-10 renal): > 100 µM
- GI50 (SW-620 colon): > 100 µM
- TGI (SW-620 colon): > 100 µM
- GI50 (HL-60(TB) leukemia): 40.2 µM
- TGI (HL-60(TB) leukemia): > 100 µM
- GI50 (MALME-3M melanoma): > 100 µM
- TGI (MALME-3M melanoma): > 100 µM
- GI50 (ACHN renal): > 100 µM
- TGI (ACHN renal): > 100 µM
- GI50 (A498 renal): > 64.3 µM
- TGI (A498 renal): > 100 µM
- GI50 (HCT-116 colon): 33.7 µM
- TGI (HCT-116 colon): > 100 µM
- GI50 (SNB-19 CNS): > 100 µM
- TGI (SNB-19 CNS): > 100 µM
- GI50 (SF-295 CNS): 92 µM
- TGI (SF-295 CNS): > 100 µM

Structure (SMILES): C=C=[CH][Sn]([c]1ccccc1)([c]1ccccc1)[c]1ccccc1
- GI50 (MDA-MB-435): 1.3 µM
- TGI (MDA-MB-435): 2.68 µM
- GI50 (TK-10 renal): 1.65 µM
- TGI (TK-10 renal): 3.1 µM
- GI50 (SW-620 colon): 0.821 µM
- TGI (SW-620 colon): 2.17 µM
- GI50 (HL-60(TB) leukemia): 1.78 µM
- TGI (HL-60(TB) leukemia): 4.57 µM
- GI50 (MALME-3M melanoma): 1.74 µM
- TGI (MALME-3M melanoma): 3.57 µM
- GI50 (ACHN renal): 1.66 µM
- TGI (ACHN renal): 3.16 µM
- GI50 (A498 renal): 1.24 µM
- TGI (A498 renal): 2.56 µM
- GI50 (HCT-116 colon): 0.866 µM
- TGI (HCT-116 colon): 2.27 µM
- GI50 (SNB-19 CNS): 1.81 µM
- TGI (SNB-19 CNS): 3.34 µM
- GI50 (SF-295 CNS): 1.96 µM
- TGI (SF-295 CNS): 3.89 µM

Structure (SMILES): N#CSCC(=O)c1ccc(Cl)cc1
- GI50 (MDA-MB-435): 2.28 µM
- TGI (MDA-MB-435): 6.37 µM
- GI50 (TK-10 renal): 3.21 µM
- TGI (TK-10 renal): 13.6 µM
- GI50 (SW-620 colon): 2.13 µM
- TGI (SW-620 colon): 12.2 µM
- TGI (HL-60(TB) leukemia): > 22.3 µM
- GI50 (MALME-3M melanoma): 5.76 µM
- TGI (MALME-3M melanoma): 42.9 µM
- GI50 (ACHN renal): 5.55 µM
- TGI (ACHN renal): 19.9 µM
- GI50 (A498 renal): 5.59 µM
- TGI (A498 renal): 20.9 µM
- GI50 (HCT-116 colon): 3.09 µM
- TGI (HCT-116 colon): 12.7 µM
- GI50 (SNB-19 CNS): 14.1 µM
- TGI (SNB-19 CNS): > 73 µM
- GI50 (SF-295 CNS): 2.89 µM
- TGI (SF-295 CNS): 13.5 µM

Structure (SMILES): C/C(=N\Nc1cccc(Cl)n1)c1ccccn1
- GI50 (MDA-MB-435): 1.78 µM
- TGI (MDA-MB-435): > 100 µM
- GI50 (TK-10 renal): 0.7 µM
- TGI (TK-10 renal): > 100 µM
- GI50 (SW-620 colon): 0.614 µM
- TGI (SW-620 colon): > 100 µM
- GI50 (HL-60(TB) leukemia): 0.446 µM
- TGI (HL-60(TB) leukemia): 3.94 µM
- GI50 (MALME-3M melanoma): 1.78 µM
- TGI (MALME-3M melanoma): 8.71 µM
- GI50 (ACHN renal): 0.556 µM
- TGI (ACHN renal): 18.4 µM
- GI50 (A498 renal): 1.41 µM
- TGI (A498 renal): 4.87 µM
- GI50 (HCT-116 colon): 0.401 µM
- TGI (HCT-116 colon): > 100 µM
- GI50 (SNB-19 CNS): 1.23 µM
- TGI (SNB-19 CNS): > 100 µM
- GI50 (SF-295 CNS): 0.827 µM
- TGI (SF-295 CNS): > 32.3 µM

Structure (SMILES): Cc1cc2c(C(C)C)c(O)c(O)c(C=O)c2c(O)c1-c1c(C)cc2c(C(C)C)c(O)c(O)c(C=O)c2c1O (tested in a mixture with another compound)
- GI50 (MDA-MB-435): 1.86 µM
- TGI (MDA-MB-435): 5.19 µM
- GI50 (TK-10 renal): 0.546 µM
- TGI (TK-10 renal): 2.93 µM
- GI50 (SW-620 colon): 0.806 µM
- TGI (SW-620 colon): 2.33 µM
- GI50 (HL-60(TB) leukemia): 0.535 µM
- TGI (HL-60(TB) leukemia): 5.74 µM
- GI50 (MALME-3M melanoma): 1.74 µM
- TGI (MALME-3M melanoma): 5.01 µM
- GI50 (ACHN renal): 0.545 µM
- TGI (ACHN renal): 2.21 µM
- GI50 (A498 renal): 1.29 µM
- TGI (A498 renal): 2.92 µM
- GI50 (HCT-116 colon): 0.455 µM
- TGI (HCT-116 colon): 1.61 µM
- GI50 (SNB-19 CNS): 0.686 µM
- TGI (SNB-19 CNS): 9.47 µM
- GI50 (SF-295 CNS): 0.325 µM
- TGI (SF-295 CNS): 1.71 µM

Structure (SMILES): C[C@@H]1CN2[C@H]3[C@@H]1CC[C@]31CCC(=O)O[C@]1(C)[C@@H]1CC[C@H]3CCC=C3[C@@H]12
- GI50 (MDA-MB-435): 48.2 µM
- TGI (MDA-MB-435): > 70 µM
- GI50 (TK-10 renal): > 70 µM
- TGI (TK-10 renal): > 70 µM
- GI50 (SW-620 colon): > 70 µM
- TGI (SW-620 colon): > 70 µM
- GI50 (HL-60(TB) leukemia): > 70 µM
- TGI (HL-60(TB) leukemia): > 70 µM
- GI50 (MALME-3M melanoma): > 70 µM
- TGI (MALME-3M melanoma): > 70 µM
- GI50 (ACHN renal): > 70 µM
- TGI (ACHN renal): > 70 µM
- GI50 (A498 renal): > 70 µM
- TGI (A498 renal): > 70 µM
- GI50 (HCT-116 colon): > 70 µM
- TGI (HCT-116 colon): > 70 µM
- GI50 (SNB-19 CNS): > 70 µM
- TGI (SNB-19 CNS): > 70 µM
- GI50 (SF-295 CNS): > 70 µM
- TGI (SF-295 CNS): > 70 µM

Structure (SMILES): CC(=O)OCC(=O)C1(O)C(C)CC2C3C=C(C)C4=Cc5c(cnn5-c5ccccc5)CC4(C)C3C(O)CC21C (centres undefined)
- GI50 (MDA-MB-435): 2.33 µM
- TGI (MDA-MB-435): 7.33 µM
- GI50 (TK-10 renal): 2.13 µM
- TGI (TK-10 renal): 9.73 µM
- GI50 (SW-620 colon): 1.7 µM
- TGI (SW-620 colon): 3.42 µM
- GI50 (HL-60(TB) leukemia): 2.44 µM
- TGI (HL-60(TB) leukemia): 9.74 µM
- GI50 (MALME-3M melanoma): 1.5 µM
- TGI (MALME-3M melanoma): 5.2 µM
- GI50 (ACHN renal): 2.16 µM
- TGI (ACHN renal): 9.03 µM
- GI50 (A498 renal): 1.4 µM
- TGI (A498 renal): 3.94 µM
- GI50 (HCT-116 colon): 1.45 µM
- TGI (HCT-116 colon): 3.12 µM
- GI50 (SNB-19 CNS): 2.31 µM
- TGI (SNB-19 CNS): 11.9 µM
- GI50 (SF-295 CNS): 0.624 µM
- TGI (SF-295 CNS): 2.63 µM
